Results reported in patent US11058702B2 (EMEK, Inc., priority 2014, dated 2021).
Read-outs that look alike come from different tables or passages of the source.

How the values were obtained:
[1] = tested on: cellular DNA of tumor and normal rectal mucosa; test: Clinical trial of ci BUdR in locally advanced cervical cancer: DNA incorporation; assay type: in vivo, human
[2] = tested on: cellular DNA of tumor and normal rectal mucosa; settings: cited from earlier work
[3] = tested on: cellular DNA of tumor and normal tissues; test: Clinical Phase I/II trials of ci IUdR + RT: % IUdR-DNA cellular incorporation, plasma level, toxicity; assay type: in vivo, human
Description: In the prior clinical Phase I and II trials of continuous intravenous infusions of IUdR+RT for high-grade gliomas (Table 1), high-grade sarcomas (Table 2), in patients with liver metastases for colorectal cancer, and in patients with head and neck cancers, the % IUdR-DNA cellular incorporation was measured in tumor tissue as well as normal tissues, including normal liver and in circulating blood cells (granulocytes).

in vivo = test: in vivo
Description: No further dose escalations were used because of the increased risk of pulmonary aspiration with larger drug volumes (≥2000 mg/kg/d).

[4] = IV IUdR
[5] = tested on: high-grade primary brain tumors; settings: cited from earlier work; for Median survival (Months): RT + IUdR
high-grade sarcomas = settings: cited from earlier work
[6] = tested on: cellular DNA of tumor and normal tissues; settings: cited from earlier work
[7] = IV or IA IUdR; cited from earlier work
[8] = tested on: human bladder cancer cell line; settings: IUdR for 48 hours prior to one-hour exposure to cisplatin; cited from earlier work
[9] = tested on: human bladder and cervical cancer cells; settings: cited from earlier work

## O=c1[nH]c(=O)n([C@H]2C[C@H](O)[C@@H](CO)O2)cc1Br [BUdR, bromodeoxyuridine]
[1]
  ratio of tumor to rectum: 1.5-1.8 fold
[2]; ci BUdR 1000 mg/M^2/day×4 days, Day 5
  tumor cell IUdR-DNA incorporation: 5-8%
[2]; ci BUdR
  IUdR-DNA incorporation in adjacent normal rectal mucosa cells: 3-4%

## O=c1[nH]c(=O)n([C@H]2C[C@H](O)[C@@H](CO)O2)cc1I [IUdR, 5-iodo-2′-deoxyuridine]
[3]; ci IUdR 1000 mg/M^2, H&N SCC
  DNA-replacement/day: 1.3%
[3]; from % IUdR-DNA incorporation at grade 3 or 4 toxicities
  TI of ci IUdR in the clinical studies: ~1
In vivo; ci IUdR 100 mg/kg/d, by day 6
  weight loss: ≥ 20%
In vivo; ci IUdR×6-14 days, xenograft studies
  GI toxicity, body weight loss: > 20%
In vivo; mouse, in vivo, po, 250 mg/kg/d
  MTD at 4 days: 250 mg/kg/day
[4]
  LD50: never reached
[5]; Anaplastic astrocytomas (Grade 3 of 4), RT alone 24
  Median survival (Months): 39 Months
[5]; Glioblastoma Multiforme (Grade 4 of 4), RT alone 9
  Median survival (Months): 15 Months
[5]; ci IUdR+RT
  prolongation of survival compared to RT alone: greater than 50%
high-grade sarcomas; High grade sarcomas (resectable), RT + IUdR + Surgery, RT + Surgery 25%
  Local Control at 2 years: 45%
high-grade sarcomas; High grade sarcomas (un-resectable), RT + IUdR, RT alone <10%
  Local Control at 2 years: 60%
[6]; 5-7 day ci IUdR infusion, locally advanced head & neck cancers
  % IUdR-DNA levels: > 5%
[6]; ci IUdR 1000 mg/M^2, within 5 days, H&N SCC
  IUdR-DNA tumor cell levels (plateau): 7.5-8%
[6]; ci IUdR exposure that produced clinical responses
  steady state plasma concentration: 1 µM
[6]; ci IUdR+RT, locally advanced head & neck cancers
  local control: high local control rate
[6]; ci IUdR
  % IUdR-DNA levels in peripheral granulocytes that predicted systemic bone marrow toxicity: 6%
  plasma level of IUdR to achieve >3% IUdR-DNA cellular incorporation: > 1000 nM
[6]; human, in vivo
  threshold of % IUdR-DNA tumor cell incorporation associated with in vivo radiosensitization: ≥ 3%
  toxicities of prolonged ci of IUdR: myelosuppression and acute GI toxicities
[6]; patients with head and neck cancers or liver metastases from colorectal cancer
  % IUdR-DNA cellular incorporation in tumors: 5-8%
[6]; patients with liver metastases
  % IUdR-DNA cellular incorporation in adjacent normal liver tissue: less than 1%
[7]
  plasma half-life: < 5 min
[8]
  dose-modifying factors at 10% survival: up to 3.5
[9]; IUdR (2 μM) + hydroxyurea
  radiation sensitizer enhancement: approximately 1.75
[9]; IUdR (2 μM) + non-cytotoxic doses of hydroxyurea
  increase in IdUTP pools and IUdR-DNA incorporation: 2 fold
